Reference: patent US20240208968A1, “ALPHA V BETA 6 AND ALPHA V BETA 1 INTEGRIN INHIBITORS AND USES THEREOF” (DiCE Molecules SV, Inc., priority 2021, published 2024)
Where a name gives a salt, the structure may show the parent alone.

Tests used:
αvβ6 = αvβ6 (Homo sapiens, UniProt P06756+P18564); experiment: Solid Phase Integrin αvβ6 Assay; assay type: binding
Method: (§1) The compounds exemplified in this document were tested for their ability to inhibit αvβ1 and αvβ6 in below described solid phase integrin assays.
Solid Phase Integrin αvβ6 Assay
96-well microtiter plates (4 HBX Immulon; Thermo Fisher Scientific, Waltham, MA) were coated with 100 μL/well of 1 μg/mL recombinant TGFb1-LAP in TBS at 4° C., overnight. The coating solution was removed, and plates were blocked with 200 μL/well of blocking and binding buffer (2% BSA/TBST, 1 mM MnCl2) at room temperature for 1 hr. Blocking buffer was removed and 50 uL of binding buffer and testing compounds were added. 50 μL of diluted αvβ6 (0.2 μg/mL in binding buffer) was added to wells (100 uL/well total) and plates incubated for 1 hr at room temperature. Wells were washed thrice with washing buffer (TBS, 0.05% Tween, 1 mM MnCl2) and plates were incubated with 100 μL/well of a 1:12500) dilution of streptavidin-horseradish peroxidase conjugate (Thermo Fisher Scientific) in binding buffer for 20 min at room temperature. Bound protein was detected using the substrate TMB. The IC50 values for testing compounds were calculated by Levenberg-Marquardt four parameter fitting logistics.

αvβ1 = αvβ1 (Homo sapiens, UniProt P05556+P06756); experiment: Solid Phase Integrin αvβ1 Assay; assay type: binding
Method: as §1
Solid Phase Integrin αvβ1 Assay
96-well microtiter plates (4 HBX Immulon; Thermo Fisher Scientific, Waltham, MA) were coated with 100 μL/well of 1 μg/mL recombinant TGFb1-LAP in TBS at 4° C., overnight. The coating solution was removed, and plates were blocked with 200 μL/well of blocking and binding buffer (2% BSA/TBST, 1 mM MnCl2) at room temperature for 1 hr. Blocking buffer was removed and 50 μL of binding buffer and testing compounds were added. 50 μL of diluted αvβ1 (0.2 ug/mL in binding buffer) was added to wells (100 μL/well total) for and plates incubated for 90 min at room temperature. Wells were washed thrice with washing buffer (TBS, 0.05% Tween, 1 mM MnCl2) and plates were incubated with 100 μL/well of a 1:12500 dilution of streptavidin-horseradish peroxidase conjugate (Thermo Fisher Scientific) in binding buffer for 20 min at room temperature. Bound protein was detected using the substrate TMB. The IC50 values for testing compounds were calculated by Levenberg-Marquardt four parameter fitting logistics.

Chain of αvβ1 (P06756 31-992 limits assumed): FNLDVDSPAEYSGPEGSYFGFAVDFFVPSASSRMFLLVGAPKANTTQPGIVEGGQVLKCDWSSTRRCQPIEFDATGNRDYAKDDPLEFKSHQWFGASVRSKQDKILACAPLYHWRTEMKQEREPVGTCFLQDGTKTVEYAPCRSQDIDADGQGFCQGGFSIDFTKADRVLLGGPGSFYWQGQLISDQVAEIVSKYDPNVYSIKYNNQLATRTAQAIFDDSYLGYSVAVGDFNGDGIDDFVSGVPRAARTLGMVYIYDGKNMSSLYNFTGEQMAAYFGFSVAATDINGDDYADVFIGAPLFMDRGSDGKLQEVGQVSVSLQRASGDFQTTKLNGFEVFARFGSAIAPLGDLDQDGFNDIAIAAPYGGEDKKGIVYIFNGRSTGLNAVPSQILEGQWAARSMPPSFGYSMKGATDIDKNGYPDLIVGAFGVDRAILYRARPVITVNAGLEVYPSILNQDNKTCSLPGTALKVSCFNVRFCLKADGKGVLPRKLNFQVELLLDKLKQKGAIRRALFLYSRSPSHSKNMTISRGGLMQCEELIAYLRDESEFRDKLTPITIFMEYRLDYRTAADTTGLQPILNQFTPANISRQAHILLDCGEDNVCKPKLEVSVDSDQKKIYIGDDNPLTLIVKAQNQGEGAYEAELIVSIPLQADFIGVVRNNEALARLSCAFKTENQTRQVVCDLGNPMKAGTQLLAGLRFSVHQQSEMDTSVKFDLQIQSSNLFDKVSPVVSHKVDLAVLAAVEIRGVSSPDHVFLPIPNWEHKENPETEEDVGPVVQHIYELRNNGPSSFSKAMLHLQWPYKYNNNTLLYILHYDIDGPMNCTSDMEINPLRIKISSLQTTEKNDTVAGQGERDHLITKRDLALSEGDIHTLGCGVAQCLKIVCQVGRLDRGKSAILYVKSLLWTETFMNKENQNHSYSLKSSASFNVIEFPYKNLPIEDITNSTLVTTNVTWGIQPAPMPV
Chain of αvβ1 (P05556 21-728 limits assumed): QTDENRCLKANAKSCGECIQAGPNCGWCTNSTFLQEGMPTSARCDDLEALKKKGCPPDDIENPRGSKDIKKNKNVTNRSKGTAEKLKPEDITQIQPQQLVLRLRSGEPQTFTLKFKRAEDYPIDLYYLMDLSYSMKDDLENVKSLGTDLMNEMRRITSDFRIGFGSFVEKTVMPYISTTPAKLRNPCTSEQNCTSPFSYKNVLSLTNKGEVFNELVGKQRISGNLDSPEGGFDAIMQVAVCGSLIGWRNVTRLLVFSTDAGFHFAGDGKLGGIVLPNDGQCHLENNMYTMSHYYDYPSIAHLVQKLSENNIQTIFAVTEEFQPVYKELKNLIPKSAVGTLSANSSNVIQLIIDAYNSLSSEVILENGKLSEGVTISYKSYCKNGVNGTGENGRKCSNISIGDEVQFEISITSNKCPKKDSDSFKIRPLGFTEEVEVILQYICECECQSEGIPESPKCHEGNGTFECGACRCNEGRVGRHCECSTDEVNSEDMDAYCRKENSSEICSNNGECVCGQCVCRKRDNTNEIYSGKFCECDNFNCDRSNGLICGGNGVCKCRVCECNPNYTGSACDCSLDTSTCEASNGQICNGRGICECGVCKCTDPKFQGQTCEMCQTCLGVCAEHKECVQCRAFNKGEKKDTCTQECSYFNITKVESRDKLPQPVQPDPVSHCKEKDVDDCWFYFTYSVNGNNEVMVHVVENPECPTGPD
Chain of αvβ6 (P06756 31-992 limits assumed): as the sequence (P06756 31-992 limits assumed) above
Chain of αvβ6 (P18564 22-707 limits assumed): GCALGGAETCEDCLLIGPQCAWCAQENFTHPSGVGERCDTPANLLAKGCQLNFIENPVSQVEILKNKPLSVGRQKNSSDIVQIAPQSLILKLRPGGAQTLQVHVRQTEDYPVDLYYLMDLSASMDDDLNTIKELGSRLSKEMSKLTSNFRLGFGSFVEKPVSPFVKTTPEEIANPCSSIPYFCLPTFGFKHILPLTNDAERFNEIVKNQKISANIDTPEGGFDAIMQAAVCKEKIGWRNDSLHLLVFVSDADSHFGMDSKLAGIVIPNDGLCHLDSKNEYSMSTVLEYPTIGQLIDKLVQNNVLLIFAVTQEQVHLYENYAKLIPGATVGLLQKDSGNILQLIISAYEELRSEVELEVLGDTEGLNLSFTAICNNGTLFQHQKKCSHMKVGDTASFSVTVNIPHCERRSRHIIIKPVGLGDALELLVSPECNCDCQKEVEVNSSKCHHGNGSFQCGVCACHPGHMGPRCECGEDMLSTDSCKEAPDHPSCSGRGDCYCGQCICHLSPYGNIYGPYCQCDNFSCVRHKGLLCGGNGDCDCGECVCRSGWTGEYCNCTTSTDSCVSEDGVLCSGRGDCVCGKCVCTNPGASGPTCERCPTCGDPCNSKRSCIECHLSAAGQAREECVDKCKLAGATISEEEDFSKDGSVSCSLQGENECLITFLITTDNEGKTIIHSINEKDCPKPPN

| Structure (SMILES) | IC50 (αvβ6) | IC50 (αvβ1) |
| --- | --- | --- |
| Cc1cc(C)n(-c2cccc([C@H](CO[C@@H]3CCCN(CCCc4ccc5c(n4)NCCC5)C3)CC(=O)O)c2)n1 [Compound 575] | < 100 nM | 100 to 1000 nM |
| O=C(O)C[C@@H](CO[C@@H]1CCCN(CCCc2ccc3c(n2)NCCC3)C1)c1cccc(N2C[C@H]3CC[C@@H]2CO3)c1 [Compound 465] | < 100 nM | < 100 nM |
| CC1(C)CN(c2cccc([C@H](CO[C@@H]3CCCN(CCCc4ccc5c(n4)NCCC5)C3)CC(=O)O)c2)CCO1 [Compound 569] | 100 to 1000 nM | 100 to 1000 nM |
| O=C(O)C[C@@H](CO[C@@H]1CCCN(CCCc2ccc3c(n2)NCCC3)C1)c1cccc([C@@H]2CCOC2)c1 [Compound 506] | < 100 nM | < 100 nM |
| O=C(O)[C@@H](CCO[C@@H]1CCCN(CCc2ccc3c(n2)NCCC3)C1)Nc1ncnc2ccccc12 [Compound 406] | 100 to 1000 nM | 100 to 1000 nM |
| O=C(CC[C@@H](NC(=O)C12CCC(CC1)CC2)C(=O)O)N[C@H]1CCN(C(=O)CCCc2ccc3c(n2)NCCC3)C1 [Compound 433] | > 1000 nM | > 1000 nM |
| O=C(O)[C@@H](CCO[C@@H]1CCCN(CCCc2ccc3c(n2)NCCC3)C1)NC(=O)C12CCC(CC1)CC2 [Compound 331] | < 100 nM | < 100 nM |
| O=C(O)C[C@@H](CC(=O)N[C@@H]1CCN(CCCCc2ccc3c(n2)NCCC3)C1)c1ccccc1 [Compound 414] | > 1000 nM | < 100 nM |
| O=C(O)[C@H](CCO[C@@H]1CCCN(CCCc2ccc3c(n2)NCCC3)C1)c1cccc2c1cnn2CC1CC1 [Compound 500] | 100 to 1000 nM | > 1000 nM |
| O=C(O)[C@@H](CO[C@@H]1CCCN(Cc2ccc3c(n2)NCCC3)C1)c1ccccc1 [Compound 389] | > 1000 nM | > 1000 nM |
| O=C(O)[C@@H](CO[C@@H]1CCCN(Cc2ccc3c(n2)NCCC3)C1)NC(=O)C12CCC(CC1)CC2 [Compound 403] | > 1000 nM | > 1000 nM |
| O=C(O)[C@H](CCO[C@@H]1CCCN(CCCc2ccc3c(n2)NCCC3)C1)c1cccc2nn(CC3CC3)cc12 [Compound 501] | 100 to 1000 nM | > 1000 nM |
| O=C(O)C[C@H](O[C@@H]1CCCN(Cc2ccc3c(n2)NCCC3)C1)c1ccccc1 [Compound 392] | > 1000 nM | > 1000 nM |
| O=C(O)C[C@H](CC(=O)N[C@@H]1CCN(C(=O)CCCc2ccc3c(n2)NCCC3)C1)c1ccccc1 [Compound 416] | > 1000 nM | > 1000 nM |
| O=C(O)[C@H](CCO[C@@H]1CCCN(CCCc2ccc3c(n2)NCCC3)C1)Nc1ncnc2cc(C(F)(F)F)ccc12 [Compound 475] | > 1000 nM | > 1000 nM |
| O=C(O)C[C@@H](CO[C@@H]1CCCN(CCCc2ccc3c(n2)NCCC3)C1)c1cccc(-c2ccccc2)c1 [Compound 457] | 100 to 1000 nM | > 1000 nM |
| O=C(O)C[C@H](CO[C@@H]1CCCN(CCCc2ccc3c(n2)NCCC3)C1)c1cccc(N2C[C@H]3CC[C@@H]2CO3)c1 [Compound 463] | 100 to 1000 nM | 100 to 1000 nM |
| O=C(O)[C@@H](c1ccccc1)[C@@H](O)CO[C@@H]1CCCN(CCCc2ccc3c(n2)NCCC3)C1 [Compound 608] | > 1000 nM | > 1000 nM |

Continued, values first:

| IC50 (αvβ6) | IC50 (αvβ1) | Structure (SMILES) |
| --- | --- | --- |
| < 100 nM | < 100 nM | O=C(NC[C@H](Nc1ccc(-c2ccccc2)nc1)C(=O)O)[C@@H]1CCCN(CCCc2ccc3c(n2)NCCC3)C1 [Compound 360] |
| 100 to 1000 nM | 100 to 1000 nM | O=C(O)C[C@H](NC(=O)[C@@H]1CCCN(CCCc2ccc3c(n2)NCCC3)C1)c1ccccc1C1CC1 [Compound 556] |
| < 100 nM | < 100 nM | O=C(NC[C@H](C(=O)O)c1ccc2ccccc2c1)[C@@H]1CCCN(CCCc2ccc3c(n2)NCCC3)C1 [Compound 249-A, 2-(naphthalen-2-yl)-3-((R)-1-(3-(5,6,7,8-tetrahydro-1,8-naphthyridin-2-yl)propyl)piperidine-3-carboxamido)propanoic acid] |
| < 100 nM | < 100 nM | Cc1ccn(-c2cccc([C@H](CC(=O)O)NC(=O)[C@@H]3CCCN(CCCc4ccc5c(n4)NCCC5)C3)c2)n1 [Compound 238, (S)-3-(3-(3-methyl-1H-pyrazol-1-yl)phenyl)-3-((R)-1-(3-(5,6,7,8-tetrahydro-1,8-naphthyridin-2-yl)propyl)piperidine-3-carboxamido)propanoic acid] |
| < 100 nM | < 100 nM | O=C(NC1CCCCC1)N[C@@H](CNC(=O)[C@@H]1CCCN(CCCc2ccc3c(n2)NCCC3)C1)C(=O)O [Compound 284, (S)-2-(3-cyclohexylureido)-3-((R)-1-(3-(5,6,7,8-tetrahydro-1,8-naphthyridin-2-yl)propyl)piperidine-3-carboxamido)propanoic acid] |
| < 100 nM | < 100 nM | O=C(NC[C@H](C(=O)O)c1ccccc1C1CC1)[C@@H]1CCCN(CCCc2ccc3c(n2)NCCC3)C1 [Compound 260-A, 2-(2-cyclopropylphenyl)-3-((R)-1-(3-(5,6,7,8-tetrahydro-1,8-naphthyridin-2-yl)propyl)piperidine-3-carboxamido)propanoic acid] |
| < 100 nM | < 100 nM | O=C(NC[C@H](C(=O)O)c1cccc2cnn([C@@H]3CCOC3)c12)[C@@H]1CCCN(CCCc2ccc3c(n2)NCCC3)C1 [Compound 323] |
| < 100 nM | < 100 nM | Cc1cc(C)n(-c2cccc([C@H](CNC(=O)[C@@H]3CCCN(CCCc4ccc5c(n4)NCCC5)C3)C(=O)O)c2)n1 [Compound 257-A, 2-(3-(3,5-dimethyl-1H-pyrazol-1-yl)phenyl)-3-((R)-1-(3-(5,6,7,8-tetrahydro-1,8-naphthyridin-2-yl)propyl)piperidine-3-carboxamido)propanoic acid] |
| < 100 nM | < 100 nM | O=C(N[C@@H](CNC(=O)[C@@H]1CCCN(CCCc2ccc3c(n2)NCCC3)C1)C(=O)O)c1c(F)cc(N2CCOC[C@@H]2C(F)(F)F)cc1F [Compound 359] |
| < 100 nM | < 100 nM | O=C(O)CC(NC(=O)[C@@H]1CCCN(CCCc2ccc3c(n2)NCCC3)C1)c1ccc2c(c1)CCO2 (stereo partly drawn) [Compound 213, 3-(2,3-dihydrobenzofuran-5-yl)-3-((R)-1-(3-(5,6,7,8-tetrahydro-1,8-naphthyridin-2-yl)propyl)piperidine-3-carboxamido)propanoic acid hydrochloride] |
| < 100 nM | < 100 nM | O=C(NC[C@H](C(=O)O)c1cccc(Oc2ccccc2)c1)[C@@H]1CCCN(CCCc2ccc3c(n2)NCCC3)C1 [Compound 251-B] |
| < 100 nM | < 100 nM | O=C(NC[C@H](NC(=O)C1(c2ccccc2)CC1)C(=O)O)[C@@H]1CCCN(CCCc2ccc3c(n2)NCCC3)C1 [Compound 547] |
| < 100 nM | < 100 nM | COC(C)(C)C1Cc2c(cccc2C(CNC(=O)[C@@H]2CCCN(CCCc3ccc4c(n3)NCCC4)C2)C(=O)O)CO1 (stereo partly drawn) [Compound 538] |
| < 100 nM | < 100 nM | O=C(NC[C@H](Nc1ncncc1C(F)(F)F)C(=O)O)[C@@H]1CCCN(CCCc2ccc3c(n2)NCCC3)C1 [Compound 563] |
| < 100 nM | < 100 nM | CC1(C)CCN(c2cccc([C@@H](CNC(=O)[C@@H]3CCCN(CCCc4ccc5c(n4)NCCC5)C3)C(=O)O)c2)CC1 [Compound 601] |
| < 100 nM | < 100 nM | C[C@H]1C[C@@H](C(=O)NC[C@H](C(=O)O)c2cccc(-c3ccccc3)c2)CN(CCCc2ccc3c(n2)NCCC3)C1 [Compound 631] |
| < 100 nM | < 100 nM | O=C(NC[C@@H](Nc1cccc(C2CC(F)(F)C2)c1)C(=O)O)[C@@H]1CCCN(CCCc2ccc3c(n2)NCCC3)C1 [Compound 589] |
| < 100 nM | < 100 nM | O=C(N[C@@H](CNC(=O)[C@@H]1CCCN(CCCc2ccc3c(n2)NCCC3)C1)C(=O)O)c1cccc2c1CCC2 [Compound 549] |
| 100 to 1000 nM | > 1000 nM | O=C(O)C[C@H](NC(=O)[C@@H]1CCCN(CCCc2ccc3c(n2)NCCC3)C1)c1ccc(C2CC2)cc1 [Compound 557] |
| < 100 nM | < 100 nM | O=C(O)C(CNC(=O)[C@@H]1CCCN(CCCc2ccc3c(n2)NCCC3)C1)c1cccc(Br)c1 (stereo partly drawn) [Compound 255, 2-(3-bromophenyl)-3-((R)-1-(3-(5,6,7,8-tetrahydro-1,8-naphthyridin-2-yl)propyl)piperidine-3-carboxamido)propanoic acid hydrochloride] |
| < 100 nM | < 100 nM | O=C(NC[C@@H](C(=O)O)c1ccc2c(c1)CCC2)[C@@H]1CCCN(CCCc2ccc3c(n2)NCCC3)C1 [Compound 254-B, 2-(2,3-dihydro-1H-inden-5-yl)-3-((R)-1-(3-(5,6,7,8-tetrahydro-1,8-naphthyridin-2-yl)propyl)piperidine-3-carboxamido)propanoic acid] |
